Key:
[1] = test system: melanoma cells; settings: in vitro and in vivo; cited from earlier work
[2] = test system: IRAK1 and IRAK4; settings: cited from earlier work
[3] = test system: MDS; settings: cited from earlier work
[4] = biological target: T1, IRAK1 (Homo sapiens, UniProt P51617); assay: Western blot for phospho-IRAK1 after IRAK-1/4 inhibitor treatment (time course); format: cell-based; settings: UMSCC1 and UMSCC47 cells
T1 construct: endogenous in cells; host or cells: UMSCC1 and UMSCC47
T1 sequence (P51617 whole entry): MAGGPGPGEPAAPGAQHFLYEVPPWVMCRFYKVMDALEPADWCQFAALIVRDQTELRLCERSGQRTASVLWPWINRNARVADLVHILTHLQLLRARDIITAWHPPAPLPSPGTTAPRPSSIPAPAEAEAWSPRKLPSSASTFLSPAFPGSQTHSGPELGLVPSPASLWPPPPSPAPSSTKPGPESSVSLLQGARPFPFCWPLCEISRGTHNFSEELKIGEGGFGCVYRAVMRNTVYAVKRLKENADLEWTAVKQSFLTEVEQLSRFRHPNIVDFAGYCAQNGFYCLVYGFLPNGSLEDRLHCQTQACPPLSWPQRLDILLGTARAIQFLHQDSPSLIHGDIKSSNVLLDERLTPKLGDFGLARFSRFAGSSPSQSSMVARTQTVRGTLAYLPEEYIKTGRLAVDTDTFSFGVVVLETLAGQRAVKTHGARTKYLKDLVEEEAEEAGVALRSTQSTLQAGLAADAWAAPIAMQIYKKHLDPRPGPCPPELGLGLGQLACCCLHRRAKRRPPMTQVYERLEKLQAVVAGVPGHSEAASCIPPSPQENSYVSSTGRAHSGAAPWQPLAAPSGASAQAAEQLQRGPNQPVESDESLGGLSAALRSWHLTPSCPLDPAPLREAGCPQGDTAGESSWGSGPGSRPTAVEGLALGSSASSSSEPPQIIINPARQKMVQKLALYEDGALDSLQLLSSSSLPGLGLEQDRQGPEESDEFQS
Protocol: Western blotting. Whole cell lysates were harvested using Laemmli buffer and a total of 20 μg of protein was analyzed as described previously. Membranes were probed with DEK (1:1000, BD Biosciences, San Jose, Calif., USA), IRAK1 (1:1000, Santa Cruz Biotechnology, Dallas, Tex., USA (sc-7883)), TRAF6 (1:1000, Santa Cruz (sc-7221)), phospho-IRAK1 (Thr209, 1:800, Assay Biotechnology Company (A1074), Sunnyvale, Calif., USA), phospho-p38 (1:500, Cell Signaling Technologies (4361)), p38 (1:1000, Cell Signaling Technologies (9212)), phospho-ERK1/2 (1:1000, Cell Signaling Technologies (4377)), ERK1/2 (1:1000, Cell Signaling Technologies (4695)), phospho-IKKa/r3 (1:500, Cell Signaling Technologies (2697)), IKKa (1:1000, Cell Signaling Technologies (2682)), phospho-hcBa (1:500, Cell Signaling Technologies (9246)), hcBa (1:1000, Cell Signaling Technologies (4812)), a-tubulin-HRP (1:10,000 Cell Signaling Technologies (9099)), actin (1:10,000 a gift from James Lessard), and GAPDH (1:1000, Cell Signaling Technologies (5174)).
IRAK1 inhibitor. […]
Cells and media were collected 72 hours later and prepared and analyzed as above. For the time-course experiment, cells were plated and inhibitor was added the following day, with protein collected at 24, 48, and 72 hours and analyzed by western blot for IRAK1 inhibition.

[5] = test system: UMSCC1 cells; assay: Flow cytometry for cleaved caspase-3 after IRAK1 inhibitor; format: cell-based, human; settings: 72 hours, vs DMSO
Protocol: Flow cytometry for Cleaved Caspase-3. Lentivirally transduced cells were plated at equal densities and collected 48 hours later. Cells were fixed and prepped following the BD FITC Active Caspase-3 Apoptosis kit protocol (BD Biosciences). […] Analysis was performed on a BD FacsCanto and data analyzed on FlowJo software (Tree Star, Ashland, Oreg., USA). Experiments were performed 3 times with standard error of the mean (SEM) represented. IRAK1 inhibitor. UMSCC1 cells were plated at equal densities and IRAK1 inhibitor (IRAK-1/4 inhibitor, 15409, Sigma-Aldrich, St. Louis, Mo., USA) added the same day for caspase-3 flow cytometry experiments. DMSO was added in equal volume for a control. Cells and media were collected 72 hours later and prepared and analyzed as above. For the time-course experiment, cells were plated and inhibitor was added the following day, with protein collected at 24, 48, and 72 hours and analyzed by western blot for IRAK1 inhibition.

O=C(Nc1nc2ccccc2n1CCN1CCOCC1)c1cccc([N+](=O)[O-])c1 [IRAK-1/4 inhibitor, N-(2-morpholinylethyl)-2-(3-nitrobenzoylamido)-benzimidazole]
apoptosis in melanoma cells [1]: increase apoptosis | kinase selectivity [2]: selective for IRAK1 and IRAK4 and shows little specificity for other kinases | signaling and cell viability in MDS [3]: inhibit signaling and cell viability | IRAK1 activation (phosphorylation of IRAK1, western blot) ([4]; 1 μM or 10 μM final concentrations, indicated time-points, vs DMSO): reduces IRAK1 activation | activation of IRAK1 (phosphorylation of IRAK1, western blot) ([4]; 10 μM, 24-72 hours post-treatment): attenuated activation of IRAK1 | apoptosis (cleaved caspase-3) [5]: Significantly increased apoptosis | apoptosis (cleaved caspase-3) ([5]; listed as IRAK1-inhibitor): increases apoptosis

— US20180282734A1, “METHODS AND COMPOSITIONS FOR THE TREATMENT OF HEAD AND NECK CANCER” (Children's Hospital Medical Center, priority 2015, published 2018)
